The source of these data is patent US20230374017A1, “COMPOSITIONS AND METHODS FOR ACTIVATING PYRUVATE KINASE” (The Regents of the University of Michigan, priority 2020, published 2023).

pEC50: −log10 of the molar value.

Assay [1] addresses T1, pyruvate kinase activity, 661W cell line (Mus musculus, UniProt P52480).
T1 construct: endogenous in cells; host or cells: 661W cell line
Description: Pyruvate kinase activity in 661W cell lysates after 2 hours treatment. The format is cell-based. Particulars: 661W cells, 2 hours incubation, activity normalized to total protein; for Emax: read-out: Max Activation (cell). On the procedure: Cell culture. For 661W cell line experiments, media was replaced prior to the start of treatment with DMSO or ML-265. Cells were incubated with DMSO or different concentrations of ML-265 for 2 hours. Cells were lysed and homogenized in RIPA Lysis and Extraction Buffer (Catalog number: 89900, Life Technologies Corporation, Grand Island, NY) with protease inhibitors (Complete-Mini, Roche Diagnostics, Indianapolis, IN) and cellular debris was removed by centrifugation at 10,000 rpm for 10 minutes. Ten microliters of the supernatant was used to assess pyruvate kinase activity, and the activity was normalized to total protein content as previously described.

The target in the next assay is T2, human recombinant PKM2 (Homo sapiens, UniProt P14618).
T2 construct: purchased Sigma SAE0021
The assay is described as follows: Pyruvate kinase activity enzyme assay, recombinant enzyme (LDH-coupled, NADH depletion at 340 nm). Type of assay: biochemical. Particulars: normalized to DMSO-treated PKM2 activity; for pEC50: recombinant PKM2 20 nM; for Max Activation / Emax: recombinant PKM2; for Emax: read-out: Max Activation. The protocol: Pyruvate Kinase Activity Enzyme Assay. Recombinant Enzyme. A continuous, enzyme-coupled assay, which uses lactate dehydrogenase (LDH) and measures the depletion of NADH via absorbance at 340 nm was utilized to determine the pyruvate kinase activity. For AC50 measurements (concentration of activator necessary to achieve half-maximal activation) with ML-265, assays were performed in 96-well format using 200 μL/well assay volume with final concentrations of 20 nM human recombinant PKM2 (Sigma, SAE0021), differing concentrations of ML-265, 0.5 mM PEP, 1 mM ADP, 0.2 mM NADH, and 8 U of lactate dehydrogenase (LDH) in an assay buffer of 50 mM Tris-HCl (pH 7.4), 100 mM KCl, and 5 mM MgCl2. The decrease in absorbance at 340 nm was monitored using a SPECTROstar Omega plate reader (BMG LABTECH Inc., Cary, NC, USA). Initial velocities were calculated with the MARS software. Data were normalized to DMSO (dimethyl sulfoxide)-treated PKM2 activity.

T1 sequence (P52480 whole entry): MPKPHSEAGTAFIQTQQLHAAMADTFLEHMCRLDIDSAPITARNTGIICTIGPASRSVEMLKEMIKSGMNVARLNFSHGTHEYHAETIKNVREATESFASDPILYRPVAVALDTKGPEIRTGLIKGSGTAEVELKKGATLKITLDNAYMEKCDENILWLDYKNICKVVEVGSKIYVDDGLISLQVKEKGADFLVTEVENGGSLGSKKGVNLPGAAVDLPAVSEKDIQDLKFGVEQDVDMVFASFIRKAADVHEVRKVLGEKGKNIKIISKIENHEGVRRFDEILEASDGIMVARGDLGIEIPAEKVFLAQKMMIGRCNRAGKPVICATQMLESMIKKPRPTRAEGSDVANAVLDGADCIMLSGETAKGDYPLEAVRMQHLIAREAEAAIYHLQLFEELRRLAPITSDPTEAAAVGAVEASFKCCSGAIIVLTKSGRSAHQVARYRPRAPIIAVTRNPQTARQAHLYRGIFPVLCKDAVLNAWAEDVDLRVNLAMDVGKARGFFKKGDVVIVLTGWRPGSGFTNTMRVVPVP
T2 sequence (P14618 whole entry): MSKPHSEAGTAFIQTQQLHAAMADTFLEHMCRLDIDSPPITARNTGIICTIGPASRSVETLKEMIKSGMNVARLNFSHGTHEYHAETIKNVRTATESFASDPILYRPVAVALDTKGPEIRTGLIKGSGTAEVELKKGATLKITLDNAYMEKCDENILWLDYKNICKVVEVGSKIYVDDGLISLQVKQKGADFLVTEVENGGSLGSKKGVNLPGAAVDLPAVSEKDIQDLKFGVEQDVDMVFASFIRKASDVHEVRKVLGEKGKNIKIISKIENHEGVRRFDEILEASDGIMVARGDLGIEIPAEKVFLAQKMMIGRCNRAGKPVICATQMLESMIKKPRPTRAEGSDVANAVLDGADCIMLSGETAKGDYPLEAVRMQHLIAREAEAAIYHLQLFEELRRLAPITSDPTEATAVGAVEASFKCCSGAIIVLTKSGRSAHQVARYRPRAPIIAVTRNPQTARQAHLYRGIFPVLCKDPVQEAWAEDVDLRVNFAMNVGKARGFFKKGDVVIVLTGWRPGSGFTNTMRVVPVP

Turning to “3-((1H-pyrazol-3-yl)methyl)-7-41H-pyrazolo[4,3-c]pyridin-4-yl)oxy)-5-methyl-3,5-dihydro-4H-pyridazino[4,5-b]indol-4-one [Example 87]”, in assay [1], the pEC50 (commonly −log10 of the EC50, conventionally taken in molar units) was 7.02 and the “Max Activation (cell)” value was determined as 317%. Also, at human recombinant PKM2, the pEC50 was 7.30 and the “Max Activation” value is on record as 270%.
`Cc1ccc2c3cnn(Cc4ccccc4)c(=O)c3n(C)c2c1` [Example 1, 3-Benzyl-5,7-dimethyl-3,5-dihydro-4H-pyridazino[4,5-b]indol-4-one]: the negative-log EC50 (pEC50) in assay [1] is 7.82; at human recombinant PKM2, 6.93. The figures for the Emax (in assay [1]; on human recombinant PKM2) were 431% and 212%, respectively.
With `COc1ccc(Cn2ncc3c4ccc(C)cc4n(C)c3c2=O)cc1` [Example 2, 3-(4-Methoxybenzyl)-5,7-dimethyl-3,5-dihydro-4H-pyridazino[4,5-b]indol-4-one], at human recombinant PKM2, the negative logarithm of the EC50 (pEC50) was 6.97 and the Emax stood at 90%.
As to `Cc1ccc2c3cnn(Cc4cccc(N)c4)c(=O)c3n(C)c2c1` [Example 3, 3-(3-Aminobenzyl)-5,7-dimethyl-3,5-dihydro-4H-pyridazino[4,5-b]indol-4-one], the values for the pEC50 (in assay [1]; on human recombinant PKM2) were 7.55 and 6.37, respectively. The results for the Emax (in assay [1]; on human recombinant PKM2) were 310% and 193%, respectively.
For `CSc1ccc2c3cnn(Cc4ccccc4)c(=O)c3n(C)c2c1` [Example 4, 3-Benzyl-5-methyl-7-(methylthio)-3,5-dihydro-4H-pyridazino[4,5-b]indol-4-one], in that order: 7.66, 6.28, 309% and 267%.
In the case of `Cn1c2cc([S+](C)[O-])ccc2c2cnn(Cc3ccccc3)c(=O)c21` (stereo not drawn) [Example 5, 3-Benzyl-5-methyl-7-(methylsulfinyl)-3,5-dihydro-4H-pyridazino[4,5-b]indol-4-one], the results for the negative-log EC50 (pEC50) (in assay [1]; at human recombinant PKM2) were 7.89 and 6.72, respectively. Moreover, the results for the Emax (in assay [1]; at human recombinant PKM2) were 295% and 226%, respectively.
Take `Cn1c2cc([S+](C)[O-])ccc2c2cnn(Cc3cccc(N)c3)c(=O)c21` (stereo not drawn) [Example 7, 3-(3-Aminobenzyl)-5-methyl-7-(methylsulfinyl)-3,5-dihydro-4H-pyridazino[4,5-b]indol-4-one]: the pEC50 in assay [1] is 7.74; at human recombinant PKM2, 7.20. Further, the Emax in assay [1] amounted to 355%; at human recombinant PKM2, 222%.
Regarding `COc1ccc2c3cnn(Cc4cccc(N)c4)c(=O)c3n(C)c2c1` [Example 8, 3-(3-Aminobenzyl)-7-methoxy-5-methyl-3,5-dihydro-4H-pyridazino[4,5-b]indol-4-one], in assay [1], the negative logarithm of the EC50 (pEC50) is 7.60 and the Emax turned out to be 324%. For the same molecule, at human recombinant PKM2, the pEC50 is 6.93 and the Emax came out at 271%.
On to `COc1ccc2c3cnn(Cc4cn5ccccc5n4)c(=O)c3n(C)c2c1` [Example 11, 3-(Imidazo[1,2-a]pyridin-2-ylmethyl)-7-methoxy-5-methyl-3,5-dihydro-4H-pyridazino[4,5-b]indol-4-one], for which, on human recombinant PKM2, the pEC50 was 6.96 and the Emax was determined as 170%.
In the case of `COc1ccc2c3cnn(Cc4ccc5ncccc5c4)c(=O)c3n(C)c2c1` [Example 12, 7-Methoxy-5-methyl-3-(quinolin-6-ylmethyl)-3,5-dihydro-4H-pyridazino[4,5-b]indol-4-one], at human recombinant PKM2, the negative-log EC50 (pEC50) is 6.88 and the Emax amounted to 123%.
Consider `Cn1c2cc(O)ccc2c2cnn(Cc3cccc(N)c3)c(=O)c21` [Example 15, 3-(3-Aminobenzyl)-7-hydroxy-5-methyl-3,5-dihydro-4H-pyridazino[4,5-b]indol-4-one], for which the pEC50 is 6.91 in assay [1] and 7.40 on human recombinant PKM2. Besides, the Emax amounted to 296% in assay [1] and 254% at human recombinant PKM2.
On to `Cc1cc2c3cnn(Cc4ccccc4F)c(=O)c3n(C)c2s1` [Example 16, 6-(2-Fluorobenzyl)-2,8-dimethyl-6,8-dihydro-7H-thieno[3′,2′:4,5]pyrrolo[2,3-d]pyridazin-7-one], for which the pEC50 in assay [1] is 7.24; on human recombinant PKM2, 7.40. The Emax in assay [1] was 279%; at human recombinant PKM2, 231%.
For `Cc1ccc2c3cnn(Cc4cccc(F)c4)c(=O)c3n(C)c2n1` [Example 18, 7-(3-fluorobenzyl)-2,9-dimethyl-7,9-dihydro-8H-pyrido[3′,2′:4,5]pyrrolo[2,3-d]pyridazin-8-one], in that order: 7.64, 7.39, 292% and 264%.
In the case of `COc1cc2c(cc1F)c1cnn(Cc3cccc(N)c3)c(=O)c1n2C` [Example 20, 3-(3-aminobenzyl)-8-fluoro-7-methoxy-5-methyl-3,5-dihydro-4H-pyridazino[4,5-b]indol-4-one], in assay [1], the pEC50 is 7.17 and the Emax is 229%. Also, on human recombinant PKM2, the negative logarithm of the EC50 (pEC50) is 7.82 and the Emax was 199%.
For the molecule `Cn1c2cc(O)c(F)cc2c2cnn(Cc3cccc(N)c3)c(=O)c21` [Example 21, 3-(3-aminobenzyl)-8-fluoro-7-hydroxy-5-methyl-3,5-dihydro-4H-pyridazino[4,5-b]indol-4-one], the results for the pEC50 (in assay [1]; on human recombinant PKM2) were 7.12 and 7.60, respectively. The results for the Emax (in assay [1]; at human recombinant PKM2) were 273% and 299%, respectively.
For `COc1cccc2c3cnn(Cc4cccc(N)c4)c(=O)c3n(C)c12` [Example 23, 3-(3-aminobenzyl)-6-methoxy-5-methyl-3,5-dihydro-4H-pyridazino[4,5-b]indol-4-one] the same measures were 7.48, 7.66, 288% and 196%.
Regarding `COc1ccc2c(c1)c1cnn(Cc3cccc(N)c3)c(=O)c1n2C` [Example 27, 3-(3-aminobenzyl)-8-methoxy-5-methyl-3,5-dihydro-4H-pyridazino[4,5-b]indol-4-one], on human recombinant PKM2, the negative logarithm of the EC50 (pEC50) was 7.59 and the Emax was 307%.
In the case of `COc1cc2c(cc1F)c1cnn(Cc3cccc(C)n3)c(=O)c1n2C` [Example 52, 8-fluoro-7-methoxy-5-methyl-3-((6-methylpyridin-2-yl)methyl)-3,5-dihydro-4H-pyridazino[4,5-b]indol-4-one], in assay [1], the pEC50 was 7.18 and the Emax was 305%. Besides, at human recombinant PKM2, the pEC50 was 7.01 and the Emax came to 225%.
On to `COc1cc2c(cc1F)c1cnn(Cc3cccc(N)c3)c(=O)c1n2C` [Example 53, 3-(3-aminobenzyl)-8-fluoro-7-methoxy-5-methyl-3,5-dihydro-4H-pyridazino[4,5-b]indol-4-one], for which, in assay [1], the negative logarithm of the EC50 (pEC50) is 7.43 and the “Max Activation (cell)” value amounted to 229%. Besides, on human recombinant PKM2, the pEC50 was 7.82 and the “Max Activation” value came out at 199%.
For `Cn1c2cc(O)c(F)cc2c2cnn(Cc3cccc(N)c3)c(=O)c21` [Example 54, 3-(3-aminobenzyl)-8-fluoro-7-hydroxy-5-methyl-3,5-dihydro-4H-pyridazino[4,5-b]indol-4-one], in that order: 7.12, 273%, 7.28 and 299%.
Take `Cc1cccc(Cn2ncc3c4cc(Oc5ccc6[nH]ncc6n5)ccc4n(C)c3c2=O)n1` [Example 60, 8-((1H-pyrazolo[4,3-b]pyridin-5-yl)oxy)-5-methyl-3-((6-methylpyridin-2-yl)methyl)-3,5-dihydro-4H-pyridazino[4,5-b]indol-4-one]: in assay [1], the pEC50 was 7.27 and the Emax stood at 334%. Besides, on human recombinant PKM2, the negative-log EC50 (pEC50) was 7.17 and the Emax is 243%.
Turning to `Cc1cccc(Cn2ncc3c4ccc(Oc5ccc6[nH]ncc6n5)cc4n(C)c3c2=O)n1` [Example 62, 7-((1H-pyrazolo[4,3-b]pyridin-5-yl)oxy)-5-methyl-3-((6-methylpyridin-2-yl)methyl)-3,5-dihydro-4H-pyridazino[4,5-b]indol-4-one], in assay [1], the pEC50 was 6.87 and the Emax stood at 376%. At human recombinant PKM2, the pEC50 was 7.09 and the Emax was found to be 221%.
For `Cc1cccc(Cn2ncc3c4ccc(Oc5cccc(O)n5)cc4n(C)c3c2=O)n1` [Example 63, 7-((6-hydroxypyridin-2-yl)oxy)-5-methyl-3-((6-methylpyridin-2-yl)methyl)-3,5-dihydro-4H-pyridazino[4,5-b]indol-4-one] the same measures were 7.11, 302%, 7.51 and 219%.
